Source: patent US6627632B2, “Compositions and methods for the treatment of anorectal disorders” (Cellegy Pharmaceuticals, Inc., priority 1998, dated 2003)
Where a name gives a salt, the structure may show the parent alone.

Legend:
[1] = tested on: internal anal sphincter; experiment: rat internal anal sphincter (IAS) relaxation model: internal anal sphincter pressure (IASP) in anesthetized rats; format: in vivo; conditions: for relaxation of the rat IAS / reduction of IASP (summary statement in the description): rat IAS in vivo, no dose stated; for potentiation with NTG, comparison of PDE V inhibitors (summary): in vivo model, i.p. PDE V inhibitor plus NTG; for drop of IASP: subsequent dose of 1% nitroglycerin, morning after dibutyryl-cGMP
Method: Male Sprague-Dawley rats (300-400 gm) were anesthetized with ketamine (90 mg/kg), xylazine (9 mg/kg) given intramuscularly and supplemented as needed with ⅓^rd dose. Rats were gently restrained on their backs on a heated surgical table (Harvard Apparatus) for the duration of the experiments. The diuretic effects of anesthesia was offset by rehydration with saline through an intraperitoneal implanted 24 gauge angiocatheter (VWR, San Francisco, Calif.). The constriction/relaxation measurement assembly included a Millar catheter/transducer (1.67 mm diameter.) connected to a Digi-Med Low Pressure Analyzer (Micro-Med) accurate for pressure measurements between −50 and 150 mmHg. The data were integrated and converted to waveforms with the Digi-Med System Integrator software. Blood pressure changes were monitored using an arterial catheter/transducer and a Digi-Med Blood Pressure Analyzer with the DMSI software. Respiratory changes were monitored using a mercury strain gauge/transducer, wrapped around the rib-cage of the rat, hooked up to a Digi-Med Analog Signal Analyzer along with the DMSI software. Drug delivery was accomplished through two Hamilton syringes with no dead space using PE 10 tubing adjacent to the catheter sensor.
In this example, male Sprague-Dawley rats (250-300 g each) from Charles River were used. The rats were anesthetized intramuscularly with ketamine (90 mg/kg) and xylazine (9 mg/kg) and kept warm on a heated surgical table. All internal anal sphincter pressures (IASP) were measured with Millar catheter/transducers (MPC-500 mikrotip; Millar Instruments, Houston) on low pressure analyzers and blood pressure analyzers and recorded by DMSI software provided by Micro-Med (Louisville). Rats were provided with saline i.p. for rehydration due to the diuretic effects of the anesthesia and re-anesthetized as needed with approximately ⅓ the original dosage. In most experiments, the IASP was allowed to reach a stable baseline level prior to drug delivery. Drugs were delivered to the anal sphincter mainly via PE 20 tubing attached to the catheter(s) near the sensor(s) from 100 μl or 250 μl Hamilton syringes either manually or by infusion with a programmable Harvard automatic infusion pump.

[2] = tested on: vascular smooth muscle; experiment: in vitro assay of NTG-induced increases in cGMP levels in vascular smooth muscle
Text: (§1) One issue with chronic or subchronic therapy with nitric oxide or nitric oxide donors such as NTG is the extent of any tachyphylaxis or tolerance to the relaxant effect of nitric oxide. Clinical studies have shown that the human cardiovascular system develops tolerance to nitric oxide donors. […] Thus, it seemed likely that the IAS would also develop tolerance to the effects of nitric oxide upon repeated or prolonged dosing.

[3] = tested on: muscle of the IAS; experiment: in vitro study of NTG-induced increases in cGMP levels in the muscle of the IAS; conditions: compared with vascular smooth muscle
[4] = cardiovascular tolerance to repeated NTG dosing, measured in vivo by mean arterial blood pressure; conditions: rat model, repeated dosing of NTG
Text: as §1

[5] = in 5% DMSO/Acetone:Olive oil 1:1, infused continuously at 20 μg/hour
[6] = in saline, infused continuously to the IAS at 20 μg/hour
[7] = 10 mg in 100 μl 1M2P i.p. 30 minutes prior to NTG bolus doses (20 μg/min every 30 minutes)
[8] = continuously infused at 20 μg/hour in 5% dextrose

## NCCc1cc(O)c(O)cc1O [6-hydroxydopamine]
[1]; 200 μg bolus in saline to the IAS each day for 5 days, day 19
  course of IASP by day 19: partial recovery in IASP
[1]; 200 μg bolus in saline to the IAS each day for 5 days, day 22
  average IASP below the original baseline pressure: 36%
[1]; 200 μg bolus in saline to the IAS each day for 5 days, through day 16, 11 days after termination of treatment
  course of IASP through day 16: continuous drop in IASP
[1]; following 5 daily topical doses of 200 μg in saline
  period of prolonged reduction in IASP: ≥ 3 week

## CC1=NS(=O)(=O)c2cc(Cl)ccc2N1 [Diazoxide]
[1]; [5]
  effect on IASP: dramatic drop in IASP
[1]
  relaxation of the rat IAS / reduction of IASP (summary statement in the description): relaxed the rat IAS in vivo

## CCCC(=O)Nc1ncnc2c1ncn2[C@@H]1O[C@@H]2COP(=O)(O)O[C@H]2[C@H]1OC(=O)CCC [Dibutyryl cAMP, N6,2′-O-Dibutyryladenosine-3′,5′-cyclic monophosphate, sodium salt monohydrate]
[1]; [6]
  effect on IASP: minor depression in IASP
[1]; rat model, aqueous-soluble analogs
  efficacy of cAMP analogs relative to each other: more efficacious in the rat model than the 8-bromo derivative

## COc1ccc([C@@H]2Sc3ccccc3N(CCN(C)C)C(=O)[C@@H]2OC(C)=O)cc1 [Diltiazem]
[1]; [6]
  effect on IASP: dramatic and sustained drop in IASP

## OCCN(CCO)c1nc(N2CCCCC2)c2nc(N(CCO)CCO)nc(N3CCCCC3)c2n1 [Dipyridamole]
[1]; 10 mg in 100 μl 1M2P i.p. 50 minutes prior to NTG bolus doses (20 μg/min every 30 minutes)
  duration of depression of IASP due to NTG relative to the vehicle-treated rat: approximately twice
[1]
  potentiation with NTG, comparison of PDE V inhibitors (summary): less striking potentiation with NTG

## CC(C)Cn1c(=O)n(C)c(=O)c2[nH]cnc21 [IBMX, 3-Isobutyl-1-methylxanthine]
[1]; in 5% DMSO/Acetone:Olive oil 1:1, infused at 200 μg/hour
  effect on IASP: significant and sustained drop in IASP
[1]; in 5% DMSO/Acetone:Olive oil 1:1, infused at 200 μg/hour, after initiation of the infusion
  time at which the drop in IASP leveled off: 1 h
[1]; [5]
  effect on IASP: similar

## Clc1ccc2ncnc(NCc3ccc4c(c3)OCO4)c2c1 [MBCQ, 4-((3,4-(Methylenedioxy)benzyl)amino)-6-chloroquinazoline]
[1]; [7]
  potentiation of NTG: No noticeable potentiation of NTG
[1]
  potentiation with NTG, comparison of PDE V inhibitors (summary): did not demonstrate significant activity

## O=C(O)c1ccc(C2=C3C=CC(=N3)C(c3ccc(C(=O)O)cc3)=c3ccc([nH]3)=C(c3ccc(C(=O)O)cc3)c3ccc([n-]3)C(c3ccc(C(=O)O)cc3)c3ccc2[n-]3)cc1.[Cl-].[Mn+3] (stereo not shown) [MnTBAP, Mn (III) tetrakis (4-benzoic acid) porphyrin chloride]
[1]; rat IASP model, superoxide scavenger with NTG
  NO enhancing activity: did not demonstrate significant NO enhancing activity

## CCCCOc1cc(CC2CNC(=O)N2)ccc1OC (stereo not shown) [RO-20-1724, 4-(3-Butoxy-4-methoxybenzyl)-2-imidazolidinone]
[1]; [5]
  effect on IASP: minimal

## Cn1c(=O)c2[nH]cnc2n(C)c1=O [Theophylline]
[1]; continuously infused at 2 μg/hour in 5% dextrose, 3 hour experiment
  effect on IASP: minimal drop in average IASP
[1]; [8]
  effect on IASP: moderate drop in average IASP
[1]; continuously infused at 200 μg/hour in 5% dextrose, 4 hour experiment
  effect on IASP: dramatic and sustained drop in IASP
[1]
  relaxation of the rat IAS / reduction of IASP (summary statement in the description): relaxed the rat IAS

## COc1ccc(CCN(C)CCCC(C#N)(c2ccc(OC)c(OC)c2)C(C)C)cc1OC (stereo not shown) [Verapamil]
[1]; [6]
  effect on IASP: dramatic and sustained drop in IASP

## CCCC(=O)Nc1nc2c(ncn2C2OC3COP(=O)([O-])OC3C2OC(=O)CCC)c(=O)[nH]1.[Na+] (stereo not shown) [dibutyryl-cGMP, N2,2′-O-Dibutyrylguanosine-3′,5′-cyclic monophosphate, sodium salt]
[1]; 20 μl of a 10% solution in saline applied to the anal canal, over 2.5 hours following treatment
  reduction of mean IASP: 45%
[1]; 20 μl of a 10% solution in saline, by the following morning
  IASP still reduced: 34%
[1]; 20 μl of a 10% solution in saline, over the last hour prior to terminating the experiment
  drop of average IASP: 60%
[1]; further dose after IASP returned to pre-treatment levels, over the ensuing 3 hours and 10 minutes
  lowering of IASP: 15%

## Cn1c(=O)c2c(ncn2CC(O)CO)n(C)c1=O (stereo not shown) [dyphylline, 7-(2,3-dihydroxypropyl) theophylline]
[1]; [8]
  effect on IASP: IAS relaxing effects
[1]
  relaxation of the rat IAS / reduction of IASP (summary statement in the description): reduce IASP

## CC(C)NCC(O)c1ccc(O)c(O)c1 (stereo not shown) [isoproterenol]
[1]; 100 μl 1M2P vehicle i.p., 30 minutes later continuous infusion in saline at 0.2 μg/hour (sub-threshold dose)
  effect on IASP: no significant effect on lowering IASP
[1]; bolus dose of 200 μg to the IAS
  effect on IASP: dramatic drop in IASP

## Nc1cc(N2CCCCC2)nc(N)[n+]1[O-] [minoxidil]
[1]; single 20 μl dose of a 4% solution in 62.5% propylene glycol, over 2.5 hours following treatment
  reduction of the IASP: 64%

## O=[N+]([O-])OCC(CO[N+](=O)[O-])O[N+](=O)[O-] [nitroglycerin]
[2]
  NTG-induced increases in cGMP levels: attenuated dramatically
[3]
  NTG-induced increases in cGMP levels: not as attenuated as those in vascular smooth muscle
[1]; 0.1% NTG in 5% dextrose/water with 1% propylene glycol, bolus doses to the IAS at 20 μg/min every 30 minutes
  effect on resting IASP: dramatic drop in resting IASP followed by a complete recovery to resting levels
[1]; continuous NTG administration, 20 μg/hour, 4 hours
  nitrate related pressure tolerance: no nitrate related pressure tolerance was noted
[1]; continuous infusion of NTG at 20 μg/hour, 4 hours
  effect on resting IASP: steady and sustained decline in resting IASP
[1]; control: vehicle 1M2P 100 μl i.p. 30 minutes prior to NTG bolus doses (20 μg/min every 30 minutes)
  duration of depression of IASP due to NTG: constant with each dose
[1]; control: vehicle 1M2P 100 μl i.p. 50 minutes prior to NTG bolus doses (20 μg/min every 30 minutes)
  duration of depression of IASP due to NTG: constant with each dose
[1]; control: vehicle 1M2P 100 μl i.p., first NTG dose after 2.75 hours (20 μg/min every 30 minutes)
  duration of depression of IASP due to NTG: consistent with each NTG dose
[1]; repeated NTG bolus administration, 20 μg/min every 30 minutes
  nitrate related pressure tolerance: no nitrate related pressure tolerance was noted
[1]; repeated or prolonged dosing in vivo
  tachyphylaxis to the relaxant effect on the IAS: does not develop
[1]; first 10 minutes following treatment
  drop of IASP: 71%
[1]; for 30 minutes
  drop of IASP: 24%
[4]
  cardiovascular tolerance (mean arterial blood pressure): develops with repeated dosing

## COc1cc2nc(N3CCN(C(=O)c4ccco4)CC3)nc(N)c2cc1OC [prazosin]
[1]; in 5% DMSO/Acetone:Olive oil 1:1, infused at 20 μg/hour
  time after which the drop in IASP plateaued: 1 h
[1]; [5]
  effect on IASP: significant and sustained drop in IASP

## COc1ccc(C2CNC(=O)C2)cc1OC1CCCC1 (stereo not shown) [rolipram]
[1]; [5]
  effect on IASP: significant drops in IASP followed by shorter recovery phases

## CC(C)(C)NCC(O)c1ccc(O)c(CO)c1 (stereo not shown) [salbutamol]
[1]; 200 μg in saline delivered to the IAS, alone
  short-term effect on IASP: no short-term effects on the IASP
[1]; [6]
  effect on IASP: significant drop in IASP throughout the experiment

## CC(C)(C)NCC(O)c1cc(O)cc(O)c1 (stereo not shown) [terbutaline]
[1]; [6]
  effect on IASP: steady and sustained decline in IASP

## CCCOc1ccccc1-c1nc2nn[nH]c2c(=O)[nH]1 [zaprinast]
[1]; 10 mg i.p. 2.75 hours prior to NTG bolus doses, time after i.p. dose
  time at which duration of IASP depression by NTG peaked: 3.5 to 4 h
[1]; [7]
  duration of IASP depression by NTG (potentiation of NTG): increasing duration of IASP depression with consecutive doses of NTG
[1]; 10 mg in 100 μl 1M2P i.p. 2.75 hours prior to NTG bolus doses (20 μg/min every 30 minutes)
  duration of IASP depression by NTG (potentiation of NTG): continued to increase with each NTG dose
[1]; 20 μL of a 5% solution in 1-methyl-2-pyrrolidinone, over 32 minutes
  reduction of mean IASP compared with vehicle treatment alone: 21%
